Test results reported in patent US20200338045A1, “ISOINDOLINE COMPOSITIONS AND METHODS FOR TREATING NEURODEGENERATIVE DISEASE” (priority 2017, published 2020).

Assays:
plasma proteins = assay: LC/MSMS protein expression in plasma (COG0102); type: in vivo, human
Experimental: Plasma and CSF protein expression were measured by LC/MSMS in samples drawn prior to dosing (Day 0) and at end of dosing (Day 28) and were compared within each patient and between dosing groups.
This trial (ClinicalTrials.gov NCT02907567) was a randomized, double-blind, placebo-controlled clinical trial in mild to moderate Alzheimer's patients (MMSE 18-26) (See FIG. 1 for clinical trial design). The trial was conducted at six sites in Australia. Patients were randomized into placebo (n=5) or CT1812-treated groups: 90 mg (n=4), 280 mg (n=5) or 560 mg (n=5) and treated once daily for 28 days. Clinical chemistry was done at Sydpath (Sydney, AU). Pharmacokinetics were done at CPR Pharma Services (Adelaide, AU). Cerebrospinal fluid samples were taken at screening and day 21-28 of treatment and aliquoted. Plasma samples were taken at screening or Day 1 (one sample) and day 14-28, then spun down to separate plasma and aliquoted. One set of CSF samples was analyzed for Alzheimer's disease biomarkers; protein measurements (Aβ42, A1340, total tau, tau phosphorylated at threonine 181 (phosphorylated tau), NFL and neurogranin) were performed using commercially available ELISA assays from Fujirebio according to the manufacturer's instructions (INNOTEST β-AMYLOID(1-42), INNOTEST β-AMYLOID(1-40), INNOTEST hTau Ag, INNOTEST PHOSPHO-TAU(181P), Uman Diagnostics NFL assay). Neurogranin was measured with a sandwich ELISA method using antibodies Ng2 and Ng22 developed at the University of Gotteborg (Kvartsberg et al. 2015). Identical aliquots of CSF, and plasma were analyzed for protein expression changes via LC/MSMS at Caprion (see below).
Matched screening and day 28 plasma and CSF samples were analyzed by LC/MSMS at Caprion Biosciences Inc. Plasma was depleted of high and medium abundance proteins using a commercial immunoaffinity column, IgY14-Supermix (Sigma). CSF was depleted of only 14 high abundance proteins using MARS-14 (Agilent). All samples were digested with trypsin and plasma samples were fractionated by strong cation exchange chromatography (3 fractions). Both CSF and plasma samples were analyzed using a NanoAcquity UPLC coupled to a Q Exactive MS. […] The 12 most intense peaks per survey scan with charge states 2-8 fragmented and scanned with a mass range from 200 to 2000 m/z at a resolution of 17,500. Raw spectrometer data files for each LC-MS run were aligned independently using Elucidator software (Rosetta Biosoftware). The MS/MS spectra were matched to corresponding peptide sequences found in the Uniprot Human protein database (January 2017) using Mascot software, allowing for up to 2 missed cleavages, a peptide tolerance of 20 ppm, and an MS/MS tolerance of 0.05 Da. Outlier detection was performed by determining the average log-intensity of all isotope groups (IG) over injection order for all samples. Samples with an average value greater than 2 standard deviations from the mean were flagged for investigation. Following data transformation and normalization, expression analysis of the identified isotope groups was performed and the statistical significance of each comparison was assessed with a parametric, linear mixed model (LMM) and a non-parametric Wilcoxon ranked test (ranked p-values). Expression analysis was also performed at the peptide and protein levels, which used the same methodology as above, but applied to peptide/protein intensities, derived by rolling-up the corresponding isotope group intensities. Isotope groups not detected in at least half of the samples in either of the two groups being compared were not used for the roll-up.

CYP isoenzymes = assay: Drug interaction studies
[1] = plasma, treated group vs baseline

In the case of `CC(C)(C)Oc1cc(CCC(C)(C)N2Cc3ccc(S(C)(=O)=O)cc3C2)ccc1O` [CT1812], the “Sema3F, % change treated vs placebo” value (plasma proteins; CSF & Plasma) is reported as 47%, the “Sema3F, With CT1812” value (plasma proteins; CSF & Plasma, direction of change) is reported as “significantly increased and ↑*” and the “Sema3F, % change baseline treated” value (plasma proteins; CSF & Plasma, treated group vs baseline) is reported as 10%. For the same compound, the “ACOX1, % change treated vs placebo” value (plasma proteins; plasma) was 42%, the “ANXA1, % change treated vs placebo” value (plasma proteins; plasma) was −61% and the “ANXA2, % change treated vs placebo” value (plasma proteins; plasma) was −54%. The “AZGP1, % change treated vs placebo” value (plasma proteins; plasma) was 28%, the “B4GALT1, % change treated vs placebo” value (plasma proteins; plasma) was 36% and the “C4BPA, % change treated vs placebo” value (plasma proteins; plasma) was 44%. For the same compound, the “CFH, % change treated vs placebo” value (plasma proteins; plasma) was 20%, the “Cathepsin S, % change treated vs placebo” value (plasma proteins; plasma) was 58% and the “Clusterin, % change treated vs placebo” value (plasma proteins; plasma) was 17%. The “FUT11, % change treated vs placebo” value (plasma proteins; plasma) was 39%, the “GALT6, % change treated vs placebo” value (plasma proteins; plasma) was 33% and the “GPR116, % change treated vs placebo” value (plasma proteins; plasma) was 27%. The “GXYLT1, % change treated vs placebo” value (plasma proteins; plasma) was 82%, the “HINT1, % change treated vs placebo” value (plasma proteins; plasma) was −131% and the “HMGB1, % change treated vs placebo” value (plasma proteins; plasma) was −315%. For the same compound, the “HRG, % change treated vs placebo” value (plasma proteins; plasma) was 61%, the “Hex A, % change treated vs placebo” value (plasma proteins; plasma) was 34% and the “Hex B, % change treated vs placebo” value (plasma proteins; plasma) was 36%. For the same compound, the “LCAT, % change treated vs placebo” value (plasma proteins; plasma) was 17%, the “NRP2, % change treated vs placebo” value (plasma proteins; plasma) was 46% and the “Neprilysin, % change treated vs placebo” value (plasma proteins; plasma) was 4717%. The “PCK2, % change treated vs placebo” value (plasma proteins; plasma) was 74%, the “POMGNT1, % change treated vs placebo” value (plasma proteins; plasma) was 41% and the “PRDX6, % change treated vs placebo” value (plasma proteins; plasma) was −130%. The “SERPING1, % change treated vs placebo” value (plasma proteins; plasma) was 24%, the “ST3GAL1, % change treated vs placebo” value (plasma proteins; plasma) was 31% and the “SUMO3, % change treated vs placebo” value (plasma proteins; plasma) was −77%. For the same compound, the “TRIM35, % change treated vs placebo” value (plasma proteins; plasma) was 99%, the “TXN, % change treated vs placebo” value (plasma proteins; plasma) was −98% and the “WDR81, % change treated vs placebo” value (plasma proteins; plasma) was 142%. For the same compound, the “ACOX1, With CT1812” value (plasma proteins; plasma, direction of change) was “↑*”, the “ANXA1, With CT1812” value (plasma proteins; plasma, direction of change) was “significantly reduced and ↓*” and the “ANXA2, With CT1812” value (plasma proteins; plasma, direction of change) was “↓*”. The “AZGP1, With CT1812” value (plasma proteins; plasma, direction of change) was “↑*”, the “B4GALT1, With CT1812” value (plasma proteins; plasma, direction of change) was “↑*” and the “C4BPA, With CT1812” value (plasma proteins; plasma, direction of change) was “significantly increased and ↑*”. The “CFH, With CT1812” value (plasma proteins; plasma, direction of change) was “↑*”, the “Cathepsin S, With CT1812” value (plasma proteins; plasma, direction of change) was “significantly increase and ↑*” and the “Clusterin, With CT1812” value (plasma proteins; plasma, direction of change) was “increased and ↑”. For the same compound, the “FUT11, With CT1812” value (plasma proteins; plasma, direction of change) was “↑*”, the “GALT6, With CT1812” value (plasma proteins; plasma, direction of change) was “↑*” and the “GPR116, With CT1812” value (plasma proteins; plasma, direction of change) was “↑”. For the same compound, the “GXYLT1, With CT1812” value (plasma proteins; plasma, direction of change) was “significantly increased and ↑*”, the “HINT1, With CT1812” value (plasma proteins; plasma, direction of change) was “significantly reduced and ↓*” and the “HMGB1, With CT1812” value (plasma proteins; plasma, direction of change) was “significantly reduced and ↓*”. For the same compound, the “HRG, With CT1812” value (plasma proteins; plasma, direction of change) was “significantly increased and ↑*”, the “Hex A, With CT1812” value (plasma proteins; plasma, direction of change) was “significantly increased and ↑*” and the “Hex B, With CT1812” value (plasma proteins; plasma, direction of change) was “significantly increased and ↑*”. The “LCAT, With CT1812” value (plasma proteins; plasma, direction of change) was “↑”, the “NRP2, With CT1812” value (plasma proteins; plasma, direction of change) was “↑*” and the “Neprilysin, With CT1812” value (plasma proteins; plasma, direction of change) was “↑*”. For the same compound, the “PCK2, With CT1812” value (plasma proteins; plasma, direction of change) was “↑”, the “POMGNT1, With CT1812” value (plasma proteins; plasma, direction of change) was “↑*” and the “PRDX6, With CT1812” value (plasma proteins; plasma, direction of change) was “↓*”. The “SERPING1, With CT1812” value (plasma proteins; plasma, direction of change) was “significantly increased and ↑*”, the “ST3GAL1, With CT1812” value (plasma proteins; plasma, direction of change) was “↑*” and the “SUMO3, With CT1812” value (plasma proteins; plasma, direction of change) was “↓*”. The “TRIM35, With CT1812” value (plasma proteins; plasma, direction of change) was “↑*”, the “TXN, With CT1812” value (plasma proteins; plasma, direction of change) was “significantly reduced and ↓*” and the “WDR81, With CT1812” value (plasma proteins; plasma, direction of change) was “significantly increased and ↑*”. For the same compound, the “GALT6, With CT1812” value (plasma proteins; plasma, direction of change, listed as CT-1812) was “significantly increased”, the “ACOX1, % change baseline treated” value (plasma proteins; [1]) was 10% and the “ANXA1, % change baseline treated” value (plasma proteins; [1]) was −18%. The “ANXA2, % change baseline treated” value (plasma proteins; [1]) was −20%, the “AZGP1, % change baseline treated” value (plasma proteins; [1]) was 5% and the “B4GALT1, % change baseline treated” value (plasma proteins; [1]) was 16%. The “C4BPA, % change baseline treated” value (plasma proteins; [1]) was 21%, the “CFH, % change baseline treated” value (plasma proteins; [1]) was 6% and the “Cathepsin S, % change baseline treated” value (plasma proteins; [1]) was 27%. The “Clusterin, % change baseline treated” value (plasma proteins; [1]) was 4%, the “FUT11, % change baseline treated” value (plasma proteins; [1]) was 18% and the “GALT6, % change baseline treated” value (plasma proteins; [1]) was 15%. The “GPR116, % change baseline treated” value (plasma proteins; [1]) was 9%, the “GXYLT1, % change baseline treated” value (plasma proteins; [1]) was 38% and the “HINT1, % change baseline treated” value (plasma proteins; [1]) was −43%. For the same compound, the “HMGB1, % change baseline treated” value (plasma proteins; [1]) was −67%, the “HRG, % change baseline treated” value (plasma proteins; [1]) was 10% and the “Hex A, % change baseline treated” value (plasma proteins; [1]) was 13%. For the same compound, the “Hex B, % change baseline treated” value (plasma proteins; [1]) was 19%, the “LCAT, % change baseline treated” value (plasma proteins; [1]) was 6% and the “NRP2, % change baseline treated” value (plasma proteins; [1]) was 10%. The “Neprilysin, % change baseline treated” value (plasma proteins; [1]) was 48%, the “PCK2, % change baseline treated” value (plasma proteins; [1]) was 76% and the “POMGNT1, % change baseline treated” value (plasma proteins; [1]) was 14%. For the same compound, the “PRDX6, % change baseline treated” value (plasma proteins; [1]) was −37%, the “SERPING1, % change baseline treated” value (plasma proteins; [1]) was 4% and the “ST3GAL1, % change baseline treated” value (plasma proteins; [1]) was 5%. For the same compound, the “SUMO3, % change baseline treated” value (plasma proteins; [1]) was −35%, the “TRIM35, % change baseline treated” value (plasma proteins; [1]) was 3% and the “TXN, % change baseline treated” value (plasma proteins; [1]) was −33%. The “WDR81, % change baseline treated” value (plasma proteins; [1]) was 33%, the “GALNT1, GALNT2, GALNT4, and GALNT5 expression” value (plasma proteins; with treatment) was “increase with treatment” and the “interactions with CYP isoenzymes” value (CYP isoenzymes) was “minor interactions”.
